Ki data for 5 molecules are collected here from BindingDB's records for doi:10.1021/jm0704898 (Georgetown University Medical Center, 2007).

Positions of bridges follow the written chain, without caps; N, C: chain ends. Residues, ends and D or L forms follow the SMILES beside them.

Assay [1] addresses Prothrombin (Bos taurus, UniProt P00735). Nature of the assay: Enzyme Inhibition Assay. Conditions: pH 8.5; 22 °C. The procedure:
(§1) The enzyme reaction was initiated by adding fluorescence peptide substrate to reaction mixture containing enzyme and test compounds. […] Hydrolysis rates were recorded in presence of six to seven different concentrations of inhibitor.

The target in assay [2] is T1, Suppressor of tumorigenicity 14 protein (Homo sapiens, UniProt Q9Y5Y6).
T1 sequence (Q9Y5Y6 whole entry): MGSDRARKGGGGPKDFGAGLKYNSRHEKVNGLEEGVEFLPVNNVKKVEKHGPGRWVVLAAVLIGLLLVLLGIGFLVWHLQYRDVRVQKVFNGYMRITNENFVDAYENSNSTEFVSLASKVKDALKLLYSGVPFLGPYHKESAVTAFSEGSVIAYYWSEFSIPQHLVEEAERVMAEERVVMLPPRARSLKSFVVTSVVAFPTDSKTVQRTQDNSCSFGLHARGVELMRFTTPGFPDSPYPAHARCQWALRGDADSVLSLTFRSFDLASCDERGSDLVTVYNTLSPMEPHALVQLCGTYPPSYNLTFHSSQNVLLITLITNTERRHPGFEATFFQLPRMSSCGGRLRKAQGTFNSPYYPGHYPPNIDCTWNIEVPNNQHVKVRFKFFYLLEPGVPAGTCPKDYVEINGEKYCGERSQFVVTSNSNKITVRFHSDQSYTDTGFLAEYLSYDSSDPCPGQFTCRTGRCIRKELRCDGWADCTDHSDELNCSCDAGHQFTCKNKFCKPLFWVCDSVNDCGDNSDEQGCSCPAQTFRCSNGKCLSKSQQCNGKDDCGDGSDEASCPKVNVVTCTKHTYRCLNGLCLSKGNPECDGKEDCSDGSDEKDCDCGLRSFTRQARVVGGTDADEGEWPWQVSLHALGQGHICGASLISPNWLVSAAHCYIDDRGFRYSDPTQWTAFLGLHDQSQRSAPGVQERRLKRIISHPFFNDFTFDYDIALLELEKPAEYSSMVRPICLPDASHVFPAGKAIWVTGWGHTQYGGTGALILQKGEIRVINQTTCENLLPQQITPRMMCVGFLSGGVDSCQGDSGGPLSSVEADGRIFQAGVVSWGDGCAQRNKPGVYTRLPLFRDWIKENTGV
Nature of the assay: Enzyme Inhibition Assay. Conditions: pH 8.5; 22 °C. The procedure:
as §1

In general, Ki refers to the dissociation constant of the complex between target and ligand, obtained from inhibition or displacement. A higher Ki goes with lower affinity.

Turning to `CC[C@H](C)[C@@H]1NC(=O)[C@@H]2CCCN2C(=O)[C@@H]2CCCN2C(=O)[C@H]([C@@H](C)CC)NC(=O)[C@H](CO)NC(=O)[C@H](CCCCN)NC(=O)[C@H]([C@@H](C)O)NC(=O)[C@@H]2CSSC[C@H](NC1=O)C(=O)N[C@@H](Cc1ccccc1)C(=O)N1CCC[C@H]1C(=O)N[C@@H](CC(=O)O)C(=O)NCC(=O)N[C@@H](Cc1ccc(N=C(N)N)cc1)C(=O)N2` [2-[(1R,4S,7S,13S,19S,22S,25S,28S,31R,34S,40S,43S,49S)-25-(4-aminobutyl)-49-benzyl-4,19-bis[(2S)-butan-2-yl]-34-[(4-carbamimidamidophenyl)methyl]-28-[(1R)-1-hydroxyethyl]-22-(hydroxymethyl)-3,6,12,18,21,24,27,30,33,36,39,42,48,51-tetradecaoxo-53,54-dithia-2,5,11,17,20,23,26,29,32,35,38,41,47,50-tetradecaazapentacyclo[29.20.4.0^{7,11}.0^{13,17}.0^{43,47}]pentapentacontan-40-yl]acetic acid], the inhibition constant Ki came out at 164 µM in assay [1] and 90 µM in assay [2].
For the molecule `CC[C@H](C)[C@@H]1NC(=O)[C@H](CO)NC(=O)[C@H](CCCCN)NC(=O)[C@H]([C@@H](C)O)NC(=O)[C@@H]2CSSC[C@H](NC(=O)[C@H](CCC(N)=O)NC(=O)[C@@H]3CCCN3C(=O)[C@@H]3CCCN3C1=O)C(=O)N[C@@H](Cc1ccccc1)C(=O)N1CCC[C@H]1C(=O)N[C@@H](CC(=O)O)C(=O)NCC(=O)N[C@@H](CCCN=C(N)N)C(=O)N2` [2-[(1R,4S,7S,13S,19S,22S,25S,28S,31R,34S,40S,43S,49S)-25-(4-aminobutyl)-49-benzyl-19-[(2S)-butan-2-yl]-34-(3-carbamimidamidopropyl)-4-(2-carbamoylethyl)-28-[(1R)-1-hydroxyethyl]-22-(hydroxymethyl)-3,6,12,18,21,24,27,30,33,36,39,42,48,51-tetradecaoxo-53,54-dithia-2,5,11,17,20,23,26,29,32,35,38,41,47,50-tetradecaazapentacyclo[29.20.4.0^{7,11}.0^{13,17}.0^{43,47}]pentapentacontan-40-yl]acetic acid] (cyclo(CFPDGRCTKSIPPQ); disulfide 1-7), the values for the Ki in assay [1] and in assay [2] were over 2500 µM and 2.33 µM, respectively.
For `CC[C@H](C)[C@@H]1NC(=O)[C@@H]2CCCN2C(=O)[C@@H]2CCCN2C(=O)[C@H]([C@@H](C)CC)NC(=O)[C@H](CO)NC(=O)[C@H](CCCCCN)NC(=O)[C@H]([C@@H](C)O)NC(=O)[C@@H]2CSSC[C@H](NC1=O)C(=O)N[C@@H](Cc1ccccc1)C(=O)N1CCC[C@H]1C(=O)N[C@@H](CC(=O)O)C(=O)NCC(=O)N[C@@H](CCCN=C(N)N)C(=O)N2` [2-[(1R,4S,7S,13S,19S,22S,25S,28S,31R,34S,40S,43S,49S)-25-(5-aminopentyl)-49-benzyl-4,19-bis[(2S)-butan-2-yl]-34-(3-carbamimidamidopropyl)-28-[(1R)-1-hydroxyethyl]-22-(hydroxymethyl)-3,6,12,18,21,24,27,30,33,36,39,42,48,51-tetradecaoxo-53,54-dithia-2,5,11,17,20,23,26,29,32,35,38,41,47,50-tetradecaazapentacyclo[29.20.4.0^{7,11}.0^{13,17}.0^{43,47}]pentapentacontan-40-yl]acetic acid] the same measures were 45.6 µM and 28 µM.
Turning to `CC[C@H](C)[C@@H]1NC(=O)[C@@H]2CCCN2C(=O)[C@@H]2CCCN2C(=O)[C@H]([C@@H](C)CC)NC(=O)[C@H](CO)NC(=O)[C@H](CCCNC(=N)N)NC(=O)[C@H]([C@@H](C)O)NC(=O)[C@@H]2CSSC[C@H](NC1=O)C(=O)N[C@@H](Cc1ccccc1)C(=O)N1CCC[C@H]1C(=O)N[C@@H](CC(=O)O)C(=O)NCC(=O)N[C@@H](CCCNC(=N)N)C(=O)N2` [2-[(1R,4S,7S,13S,19S,22S,25S,28S,31R,34S,40S,43S,49S)-49-benzyl-4,19-bis[(2S)-butan-2-yl]-25,34-bis(3-carbamimidamidopropyl)-28-[(1R)-1-hydroxyethyl]-22-(hydroxymethyl)-3,6,12,18,21,24,27,30,33,36,39,42,48,51-tetradecaoxo-53,54-dithia-2,5,11,17,20,23,26,29,32,35,38,41,47,50-tetradecaazapentacyclo[29.20.4.0^{7,11}.0^{13,17}.0^{43,47}]pentapentacontan-40-yl]acetic acid], the Ki was found to be 0.86 µM in assay [1] and 4.75 µM in assay [2].
For the molecule `CC[C@H](C)[C@@H]1NC(=O)[C@@H]2CCCN2C(=O)[C@@H]2CCCN2C(=O)[C@H]([C@@H](C)CC)NC(=O)[C@H](CO)NC(=O)[C@H](CCCCN)NC(=O)[C@H]([C@@H](C)O)NC(=O)[C@H](CO)NC(=O)[C@H](CCCN=C(N)N)NC(=O)CNC(=O)[C@H](CC(=O)O)NC(=O)[C@@H]2CCCN2C(=O)[C@H](Cc2ccccc2)NC(=O)[C@H](CO)NC1=O` [2-[(1S,7S,10S,13S,16S,22S,25S,31S,34S,37S,40S,43S,46S)-40-(4-aminobutyl)-16-benzyl-10,46-bis[(2S)-butan-2-yl]-31-(3-carbamimidamidopropyl)-37-[(1R)-1-hydroxyethyl]-13,34,43-tris(hydroxymethyl)-2,8,11,14,17,23,26,29,32,35,38,41,44,47-tetradecaoxo-3,9,12,15,18,24,27,30,33,36,39,42,45,48-tetradecaazatetracyclo[46.3.0.0^{3,7}.0^{18,22}]henpentacontan-25-yl]acetic acid], the Ki in assay [1] came to 40.4 µM; in assay [2] it was 107 µM.
